Source: US20070117842A1, “Polymorph of 4-[3-chloro-4-(cyclopropylaminocarbonyl)aminophenoxy]-7-methoxy-6- quinolinecarboxamide and a process for the preparation of the same” (priority 2003, published 2007)
Values after ≈ are worked out from the molar mass of the structure shown. One block for each compound: values may come before it.

Assays:
[1] = Solid stability test (1 month storage; appearance, water content, HPLC purity and residual ratio, powder X-ray diffraction); type: physicochemical; conditions: for impurity / remaining percent: HPLC; for water content: Karl Fischer method
Experimental: (Solid Stability Test) The solid stabilities of the crystal obtained in Examples 1d and 2d were evaluated. […] The water content measurement and the powder X-ray diffraction measurement were carried out by the same method as described in the hygroscopicity test by the dessiccator method. Further, the purity test and the residual ratio (percent) measurement by HPLC were carried out by the same method as described above, except for the condition that the column temperature was 35° C. In this connection, the residual ratio (percent) (measurement by HPLC) was defined as stated bellow by using the crystal stored under the condition C as the standard and its solution as the standard solution. Remaining percent (%)=[(Peak area of the sample solution)×(Weighed amount of the standard: in terms of a dehydrate (mg))]×100/[(Peak area of the standard solution)×(Weighed amount of the sample: in terms of a dehydrate (mg))] [table]

[2] = Hygroscopicity test by microbalance method; type: physicochemical; conditions: 25° C.
Experimental: (Hygroscopicity Test by Microbalance Method)
The higroscopicities of the crystals obtained in Examples 1d and 2d were evaluated by microbalance method. An apparatus and conditions employed were as follows.
Apparatus: Integrated microbalance system MB 300W (VTI Co.)
Relative humidity step: 5 to 95 by 5
Equilibrium Criteria: 0.0050 wt % (5 minutes)
Maximum equilibrium time: 120 minutes
The results of measuring the higroscopicities of the crystals obtained in Examples 1d and 2d by microbalance method are shown in FIGS. 13 and 14, respectively. As is seen from the results shown in these figures, within the range of 5-95% of relative humidity, the polymorph (A) gave a weight change of 1% and the polymorph (B) gave that of 1.5%.

[3] = Crystal transition between polymorphs in heated suspension; type: physicochemical; conditions: 60° C., 3 hours, listed as polymorph (B)
Experimental: These suspensions were filtered to collect 4-(3-chloro-4-(cyclopropylaminocarbonyl)aminophenoxy)-7-methoxy-6-quinolinecarboxamide (184 to 266 mg).
These suspensions were filtered to collect 4-(3-chloro-4-(cyclopropylaminocarbonyl)aminophenoxy)-7-methoxy-6-quinolinecarboxamide (141 to 256 mg).

[4] = Hygroscopicity test by a desiccator method; type: physicochemical; conditions: for water content: Karl Fischer method
Experimental: (Hygroscopicity Test by a Desiccator Method) The hygroscopicities of the crystals obtained in Examples 1d and 2d were evaluated by a desiccator method. […] Weighing bottles (in opened caps) were used for containers, and MIR-552 (Sanyo) was used for a storage apparatus. [table] The powder X-ray diffraction analysis was carried out under the following conditions. The water content was measured (by the Karl Fischer method) by using the following apparatus and reagents.

[5] = Solubility test (pH 3, Britton Robinson buffer); type: physicochemical; conditions: for solubility (concentration in filtrate): pH 3 Britton Robinson buffer, 25-26° C.; for pH of the filtrate: solubility test
Experimental: (Solubility Test) The solubilities (pH 3) of the crystals obtained in Examples 1d and 2d were evaluated by the following method. About 3 mg of the crystals obtained in Examples 1d and 2d were weighed and each of them was put in a 10 mL screw-capped transparent test tube. 5 mL of a buffer solution (Britton Robinson buffer, pH 3.091, ionic strength I=0.3) was added to each of the test tubes to prepare the test solutions. The test tubes were wrapped with aluminum foil to shield from light, and shaken by a shaker (MS-1 Iuchi Seieido) in the following conditions. Temperature: 25-26° C. (a temperature in a laboratory) Shaking frequency: 150 times/minute Shaking time: 3 hours and 5 hours Respective sample solutions after shaking were filtered ([…], Sample LCR13-LG, Millipore Co.), and each 1 mL of the initial filtrate was discarded. Each of accurately pipetted 1 mL of the filtrates was put in a 10 mL test tube, to which accurately pipetted 1 mL of a mixed solution of water/acetonitrile (1:1 (v/v)) was added to prepare a solution for the HPLC analysis. The HPLC conditions were as follows. A standard solution for the HPLC analysis were prepared as follows. About 10 mg of the crystals obtained in Example 2d was accurately weighed, to which a mixed solution of water/acetonitrile/ammonium acetate (100:100:0.1, v/v/w) was added to give accurate 100 mL to prepare a stock standard solution. Accurately pipetted 5 mL of the stock control solution was added with a mixed solution of water/acetonitrile/ammonium acetate (100:100:0.1, v/v/w) to give accurate 25 mL to prepare the standard solution for the HPLC analysis. Regarding a blank solution, a mixed solution of water/acetonitrile/ammonium acetate (100:100:0.1, v/v/w) was used. The standard solution and respective filtrates were analyzed by HPLC to measure concentrations (mg/mL) of 4-(3-chloro-4-(cyclopropylaminocarbonyl)aminophenoxy)-7-methoxy-6-quinolinecarboxamide in respective filtrates according to the following equation. Concentration (mg/mL)=(Concentration in the standard solution, mg/mL)×[(Peak area in each filtrate)×2/(Peak area in the standard solution)] As is evident from the results, there was no significant difference in the solubility at pH 3 between the polymorphs (A) and (B).

[6] = test system: small cell lung cancer cell line H-526 expressing c-Kit kinase; test: Effect on cell proliferation stimulated by SCF; type: cell-based; conditions: Homo sapiens, NCI-H526; H-526 cells, SCF stimulation, 7th day, Cell Counting Kit-8; read-out: IC50 (concentration required for 50% inhibition of the cell proliferation)
Experimental: After culturing, H-526 cells were washed with PBS three times and were suspended in an RPMI1640 medium containing 0.1% BSA (Sigma Corporation) (hereinafter abbreviated as “BSA-RPMI1640”) at 1.0×10^5 cells/ml. […] After color development, the absorbance of each well was determined using a MTP-32 plate reader (Colona Electric Co., Ltd.) at a measuring wavelength of 450 nm and at a reference wavelength of 660 nm. The absorbance of each well was subtracted by the absorbance of the well without addition of SCF, and then the ratio of the absorbance of the well with addition of the test substance to the ratio of the absorbance of the well without addition of the test substance was determined. This ratio was used to calculate the concentration of the test substance required for 50% inhibition of the cell proliferation (IC50).

[7] = condition C: −20° C., brown screw vial, closed, 1 month
[8] = condition D: 25° C., 1000lx, shading with aluminum foil, quartz tube, closed, 1 month
[9] = condition E: 25° C., 1000lx, quartz tube, closed, 1 month
[10] = condition F: 40° C., 75% RH, brown screw vial, open, 1 month
[11] = condition G: 60° C., brown screw vial, closed, 1 month
[12] = condition A: 25° C., 75% relative humidity, stored 1 week
[13] = condition B: 25° C., 93% relative humidity, stored 1 week
[14] = desiccator method, 25° C., 75% or 93% relative humidity, 1 week

appearance [1, 7]: pale brownish | impurity [1, 7]: 1.55% | remaining percent ([1]; condition C: −20° C., brown screw vial, closed, 1 month, condition C is the standard): (100) % | water content [1, 7]: 0.4 wt % | appearance [1, 8]: pale brownish | impurity [1, 8]: 1.54% | remaining percent ([1]; condition D: 25° C., 1000lx, shading with aluminum foil, quartz tube, closed, 1 month, vs condition C standard): 101.8% | water content [1, 8]: 0.3 wt % | appearance [1, 9]: pale brownish | impurity [1, 9]: 1.55% | remaining percent ([1]; condition E: 25° C., 1000lx, quartz tube, closed, 1 month, vs condition C standard): 100.5% | water content [1, 9]: 0.3 wt % | appearance [1, 10]: pale brownish | impurity [1, 10]: 1.54% | remaining percent ([1]; condition F: 40° C., 75% RH, brown screw vial, open, 1 month, vs condition C standard): 100.4% | water content [1, 10]: 0.4 wt % | appearance [1, 11]: pale brownish | impurity [1, 11]: 1.53% | remaining percent ([1]; condition G: 60° C., brown screw vial, closed, 1 month, vs condition C standard): 101.3% | water content [1, 11]: 0.5 wt % | appearance ([1]; prior to storage): pale brownish | impurity ([1]; prior to storage): 1.53% | water content ([1]; prior to storage): 0.5 wt % | change on storage (solid stability) ([1]; stored for 1 month, any storage conditions): no change was observed | hygroscopicity ([2]; microbalance method, 5-95% relative humidity): no perceivable hygroscopisity | weight change ([2]; within the range of 5-95% of relative humidity, listed as polymorph (B)): 1.5% | crystal form after suspension ([3]; 300 mg in DMSO (1.7 mL) and 33% (v/v) acetone-water (0.17, 0.34, 0.51 or 0.85 mL)): all of them remained the polymorph (B) | dissolution in DMSO ([3]; 300 mg in DMSO (1.7 mL), without 33% acetone-water): most of the polymorph (B) dissolved | appearance [4, 12]: pale brownish | water content [4, 12]: 0.5 wt % | appearance [4, 13]: pale brownish | water content [4, 13]: 0.5 wt % | crystal transition [4, 14]: no perceivable crystal transition | hygroscopicity [4, 14]: no perceivable hygroscopicitiy | appearance ([4]; prior to storage): pale brownish | water content ([4]; prior to storage): 0.5 wt % | solubility (concentration in filtrate) ([5]; shaking time 3 hours): 62 µg/mL (≈ 145 µM) | solubility (concentration in filtrate) ([5]; shaking time 5 hours): 54 µg/mL (≈ 127 µM) | pH of the filtrate ([5]; shaking time 3 hours): 3.109 | pH of the filtrate ([5]; shaking time 5 hours): 3.106
Compound: COc1cc2nccc(Oc3ccc(NC(=O)NC4CC4)c(Cl)c3)c2cc1C(N)=O [Example 2d, 4-(3-chloro-4-(cyclopropylaminocarbonyl)aminophenoxy)-7-methoxy-6-quinolinecarboxamide]

IC50 [6]: 301 nM
Compound: CCCNC(=O)Nc1ccc(Oc2ncnc3cc(OC)c(OC)cc23)cc1Cl [KRN633, reference compound]
